The target of assay [1] is PARP1 (Homo sapiens (Human), UniProt P09874). The experiment in a line: PARP1 biochemical assay (Trevigen kit). From the text: PARP1 biochemical assay was purchased as a kit from Trevigen (cat.#4676-096-K) and used per manufacturers recommendations.
The target of assay [2] is 6×HIS-tankyrase 2 (946-1162) (Homo sapiens (Human), UniProt Q9H2K2). The experiment in a line: Tankyrase 2 biochemical assay (AlphaLisa, PARsylation). To be noted: 250 nM NAD; read-out: TNKS2 IC50.
Sequence of 6×HIS-tankyrase 2 (946-1162) (Q9H2K2 946-1162): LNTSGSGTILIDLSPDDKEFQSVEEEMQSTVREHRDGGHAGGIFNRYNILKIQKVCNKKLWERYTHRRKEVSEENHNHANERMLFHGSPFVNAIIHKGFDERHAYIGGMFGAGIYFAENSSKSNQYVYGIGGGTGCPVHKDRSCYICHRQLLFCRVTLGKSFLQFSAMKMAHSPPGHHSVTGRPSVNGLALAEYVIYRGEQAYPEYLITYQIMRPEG
The target in assay [3] is PARP2 (Homo sapiens (Human), UniProt Q9UGN5). The assay is described as follows: PARP2 biochemical assay (BPS kit).
Sequence of PARP2 (Q9UGN5 whole entry): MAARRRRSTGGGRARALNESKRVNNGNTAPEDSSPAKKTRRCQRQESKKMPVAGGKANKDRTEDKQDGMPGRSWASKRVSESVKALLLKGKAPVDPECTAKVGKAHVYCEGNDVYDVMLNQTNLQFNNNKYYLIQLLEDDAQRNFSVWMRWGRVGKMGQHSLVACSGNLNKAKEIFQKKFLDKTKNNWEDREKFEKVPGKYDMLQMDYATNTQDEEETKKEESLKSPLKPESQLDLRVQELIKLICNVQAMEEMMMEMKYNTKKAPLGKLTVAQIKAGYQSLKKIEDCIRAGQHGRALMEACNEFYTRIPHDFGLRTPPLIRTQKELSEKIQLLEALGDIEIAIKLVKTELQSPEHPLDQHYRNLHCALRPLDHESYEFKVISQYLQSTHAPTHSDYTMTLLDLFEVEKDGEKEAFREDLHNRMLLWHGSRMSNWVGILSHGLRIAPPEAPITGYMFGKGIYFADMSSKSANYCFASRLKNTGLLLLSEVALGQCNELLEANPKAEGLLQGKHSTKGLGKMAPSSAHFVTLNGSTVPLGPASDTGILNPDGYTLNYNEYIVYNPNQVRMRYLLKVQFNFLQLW
The target of assay [4] is 6×HIS-tankyrase1 (1091-1325) (Homo sapiens (Human), UniProt O95271). The experiment in a line: Tankyrase 1 biochemical assay (AlphaLisa, PARsylation). The settings on record: 400 nM NAD, 60 minutes at RT; read-out: TNKS1 IC50.
Sequence of 6×HIS-tankyrase1 (1091-1325) (O95271 1091-1325): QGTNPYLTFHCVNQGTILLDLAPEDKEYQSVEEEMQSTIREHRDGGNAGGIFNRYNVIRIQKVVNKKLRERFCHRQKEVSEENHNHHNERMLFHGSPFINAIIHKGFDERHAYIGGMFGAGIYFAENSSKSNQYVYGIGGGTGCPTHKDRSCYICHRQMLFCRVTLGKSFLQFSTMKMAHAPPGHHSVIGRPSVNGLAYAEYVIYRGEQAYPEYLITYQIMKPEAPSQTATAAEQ
The test system of assay [5] is Axin2 accumulation in SW480 cells. The experiment in a line: Axin2 384 immunofluorescence assay. Format: cell-based. The settings on record: Homo sapiens; SW480 cells, 24 hours; read-out: Axin2 384 IF EC50.
Assay [6] has as its system total β-catenin in SW480 colorectal cells. The assay is described as follows: Total β-catenin MSD 96-well plate assay for SW480 cells. The settings on record: Homo sapiens, SW480, read-out: SW480-Total beta-catenin (TBC) IC50 IP.

Each structure is given as a SMILES string.

Sequence of PARP1 (P09874 whole entry): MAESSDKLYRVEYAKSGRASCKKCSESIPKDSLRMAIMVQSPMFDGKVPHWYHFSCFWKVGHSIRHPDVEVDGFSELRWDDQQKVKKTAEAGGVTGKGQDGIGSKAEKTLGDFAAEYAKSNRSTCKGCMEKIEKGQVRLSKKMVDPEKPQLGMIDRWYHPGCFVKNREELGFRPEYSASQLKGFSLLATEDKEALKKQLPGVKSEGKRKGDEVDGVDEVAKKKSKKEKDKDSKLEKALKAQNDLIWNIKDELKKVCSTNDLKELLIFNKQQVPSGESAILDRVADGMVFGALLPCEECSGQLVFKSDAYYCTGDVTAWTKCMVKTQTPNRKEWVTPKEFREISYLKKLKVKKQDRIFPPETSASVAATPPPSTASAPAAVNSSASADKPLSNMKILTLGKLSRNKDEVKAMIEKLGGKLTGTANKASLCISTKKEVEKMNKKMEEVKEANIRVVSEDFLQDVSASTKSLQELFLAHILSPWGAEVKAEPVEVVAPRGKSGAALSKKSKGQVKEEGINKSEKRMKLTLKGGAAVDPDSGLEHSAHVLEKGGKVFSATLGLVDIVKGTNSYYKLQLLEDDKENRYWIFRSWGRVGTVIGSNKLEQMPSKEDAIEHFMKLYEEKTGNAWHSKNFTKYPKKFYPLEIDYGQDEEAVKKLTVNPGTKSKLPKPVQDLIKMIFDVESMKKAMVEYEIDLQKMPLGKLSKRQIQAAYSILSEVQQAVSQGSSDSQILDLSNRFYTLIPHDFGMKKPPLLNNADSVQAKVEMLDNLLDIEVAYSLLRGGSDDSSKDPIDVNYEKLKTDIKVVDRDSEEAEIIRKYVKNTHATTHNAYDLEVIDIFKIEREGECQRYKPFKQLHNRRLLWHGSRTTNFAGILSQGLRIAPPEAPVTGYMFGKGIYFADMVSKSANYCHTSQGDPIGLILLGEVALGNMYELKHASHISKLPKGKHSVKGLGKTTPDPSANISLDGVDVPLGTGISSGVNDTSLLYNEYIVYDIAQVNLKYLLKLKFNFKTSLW

As to `N#Cc1cccc2c1[nH]c(=O)n2C1CCN(C(=O)CCCc2nc3ccccc3c(=O)[nH]2)CC1` [Example 61, 2-oxo-1-(1-(4-(4-oxo-3,4-dihydro-2-quinazolinyl)butanoyl)-4-piperidinyl)-2,3-dihydro-1H-benzimidazole-4-carbonitrile], the IC50 in assay [1] is 464 nM; in assay [2] it was 0.206 nM; in assay [3], 349 nM; in assay [4] it was 0.873 nM; in assay [6], 302 nM. Also, in assay [5], the EC50 was 217 nM.
On to `N#Cc1cc(O[C@H]2CC[C@H](NC(=O)CCCc3nc4ccccc4c(=O)[nH]3)CC2)ccc1Cl` [Example 63, N-(trans-4-(4-chloro-3-cyanophenoxy)cyclohexyl)-4-(4-oxo-3,4-dihydro-2-quinazolinyl)butanamide], for which the IC50 in assay [1] was found to be 586 nM; in assay [2], 0.653 nM; in assay [3], 802 nM; in assay [4] it was 2.33 nM; in assay [6], 211 nM. Besides, the EC50 in assay [5] came out at 270 nM.
With `O=C(CCCc1nc2ccccc2c(=O)[nH]1)N[C@H]1CC[C@H](Oc2cccc(Cl)c2)CC1` [Example 66, N-(trans-4-(3-chlorophenoxy)cyclohexyl)-4-(4-oxo-3,4-dihydro-2-quinazolinyl)butanamide], the IC50 was determined as 1390 nM in assay [1]; 1.02 nM in assay [2]; 998 nM in assay [3]; 3.11 nM in assay [4]; 614 nM in assay [6]. In addition, in assay [5], the EC50 worked out at 628 nM.
As to `O=C(CCCc1nc2ccccc2c(=O)[nH]1)N1CCC(n2c(=O)[nH]c3c(F)cccc32)CC1` [Example 67, 2-(4-(4-(4-fluoro-2-oxo-2,3-dihydro-1H-benzimidazol-1-yl)-1-piperidinyl)-4-oxobutyl)-4(3H)-quinazolinone], the IC50 in assay [1] was determined as 1280 nM; in assay [2], 1.68 nM; in assay [3] it was 681 nM; in assay [4] it was 3.93 nM; in assay [6] it was 980 nM. For the same compound, the EC50 in assay [5] was 552 nM.
Take `N#Cc1ccc2c(c1)[nH]c(=O)n2C1CCN(C(=O)CCCc2nc3ccccc3c(=O)[nH]2)CC1` [Example 68, 2-oxo-1-(1-(4-(4-oxo-3,4-dihydro-2-quinazolinyl)butanoyl)-4-piperidinyl)-2,3-dihydro-1H-benzimidazole-5-carbonitrile]: the concentration for half-maximal inhibition (IC50) in assay [1] was found to be 636 nM; in assay [2] it was 0.292 nM; in assay [3], 227 nM; in assay [4] it was 0.783 nM; in assay [6], 161 nM. Moreover, the EC50 in assay [5] was determined as 239 nM.
`O=C(CCCc1nc2ccccc2c(=O)[nH]1)N1CCN(c2nsc3ccccc23)CC1` [Example 69, 2-(4-(4-(1,2-benzisothiazol-3-yl)-1-piperazinyl)-4-oxobutyl)-4(3H)-quinazolinone]: the IC50 stood at 1760 nM in assay [1]; 451 nM in assay [2]; 317 nM in assay [3]; 407 nM in assay [4]; 2560 nM in assay [6]. In addition, the EC50 in assay [5] was determined as 686 nM.
With `O=C(CCCc1nc2ccccc2c(=O)[nH]1)N[C@H]1CC[C@H](Oc2ccncc2)CC1` [Example 70, 4-(4-oxo-3,4-dihydro-2-quinazolinyl)-N-(trans-4-(4-pyridinyloxyl)cyclohexyl)butanamide], the IC50 in assay [1] was 723 nM; in assay [2], 0.826 nM; in assay [3], 1810 nM; in assay [4] it was 5.1 nM; in assay [6] it was 252 nM. In addition, the EC50 in assay [5] came out at 191 nM.
As to `O=C(CCCc1nc2ccccc2c(=O)[nH]1)N[C@H]1CC[C@H](Oc2ccc(F)cc2)CC1` [Example 77, N-(trans-4-(4-fluorophenoxy)cyclohexyl)-4-(4-oxo-3,4-dihydro-2-quinazolinyl)butanamide], the IC50 in assay [1] stood at 1710 nM; in assay [2] it was 0.601 nM; in assay [3] it was 1820 nM; in assay [4], 4.37 nM; in assay [6] it was 119 nM. In addition, the EC50 in assay [5] came to 601 nM.

For the origin of these results see patent US9505749B2, “Quinazolinone compounds and derivatives thereof” (AMGEN INC., priority 2012, dated 2016).
